Where “and” joins values, the source holds several entries; their conditions need not be identical. Equal values may be shown once. Read-outs that look alike come from different tables or passages of the source.
What was measured:
[1] = target: T1, plasmin (Homo sapiens, UniProt P00747); assay: Annular fibrin clot assay (FITC-tagged fibrin clot lysis by plasmin); format: biochemical; conditions: for IC50/Ki: annular clot IC50 over S-2251 plasmin Ki
[2] = target: human tPA (Homo sapiens, UniProt P00750); assay: tPA inhibition assay with chromogenic substrate S-2288 (Dixon plot, Cornish-Bowden plot); format: biochemical; conditions: for Mode of inhibition (Cornish-Bowden S/Vo vs I plot): tPA; for Ki: S-2288, 75 nM human tPA, PBS pH 7.4, Dixon plot
[3] = target: T1, plasmin; conditions: read-out: Plasmin Ki; S-2251, 42.5 nM human plasmin, Dixon plot; previously determined; cited from earlier work
[4] = target: human thrombin (Homo sapiens, UniProt P00734); assay: Thrombin inhibition assay with fluorogenic Thrombin Substrate III (Dixon plot, Cornish-Bowden plot); format: biochemical; conditions: for Mode of inhibition (Cornish-Bowden S/Vo vs I plot): thrombin; for Ki: TSIII, 0.25 U/mL human thrombin, PBS pH 7.4 at 10% DMSO, Dixon plot
[5] = target: T1, plasmin; assay: Plasmin inhibition assay with chromogenic substrate S-2251 (Dixon plot, Cornish-Bowden plot); format: biochemical; conditions: for Mode of inhibition (Cornish-Bowden S/Vo vs I plot) / rpAMB (KiAMB/Kihetero) / rpTXA (KiTXA/Kihetero): plasmin; for Ki: read-out: Plasmin Ki, S-2251, 42.5 nM human plasmin, PBS pH 7.4, Dixon plot
[6] = target: plasmin; conditions: read-out: Plasmin active site Ki reported in the literature; cited from earlier work
[7] = target: LBS on kringle domains of plasmin; conditions: cited from earlier work

T1 sequence (P00747 97-580 limits assumed): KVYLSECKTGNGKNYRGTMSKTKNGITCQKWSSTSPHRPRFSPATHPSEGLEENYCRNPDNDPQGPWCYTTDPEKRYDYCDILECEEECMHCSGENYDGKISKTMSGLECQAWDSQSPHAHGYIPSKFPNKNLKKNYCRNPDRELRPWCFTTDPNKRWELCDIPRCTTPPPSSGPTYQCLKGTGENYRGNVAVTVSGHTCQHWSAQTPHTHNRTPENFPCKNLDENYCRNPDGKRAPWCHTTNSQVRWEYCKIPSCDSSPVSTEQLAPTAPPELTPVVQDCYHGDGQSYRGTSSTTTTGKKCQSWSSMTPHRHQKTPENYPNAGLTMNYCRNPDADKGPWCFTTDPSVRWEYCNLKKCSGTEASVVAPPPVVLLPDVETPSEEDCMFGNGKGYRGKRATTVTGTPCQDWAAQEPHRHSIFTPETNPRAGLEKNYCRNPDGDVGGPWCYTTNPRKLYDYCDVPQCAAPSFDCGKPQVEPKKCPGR
T1 sequence (P00747 581-810 limits assumed): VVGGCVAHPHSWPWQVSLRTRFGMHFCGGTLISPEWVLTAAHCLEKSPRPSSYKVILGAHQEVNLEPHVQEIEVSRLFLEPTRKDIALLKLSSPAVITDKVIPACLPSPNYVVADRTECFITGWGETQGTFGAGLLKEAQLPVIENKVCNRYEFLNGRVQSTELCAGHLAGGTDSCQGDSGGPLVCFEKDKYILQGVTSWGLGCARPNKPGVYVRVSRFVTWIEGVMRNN
Chain of human tPA (P00750 36-562): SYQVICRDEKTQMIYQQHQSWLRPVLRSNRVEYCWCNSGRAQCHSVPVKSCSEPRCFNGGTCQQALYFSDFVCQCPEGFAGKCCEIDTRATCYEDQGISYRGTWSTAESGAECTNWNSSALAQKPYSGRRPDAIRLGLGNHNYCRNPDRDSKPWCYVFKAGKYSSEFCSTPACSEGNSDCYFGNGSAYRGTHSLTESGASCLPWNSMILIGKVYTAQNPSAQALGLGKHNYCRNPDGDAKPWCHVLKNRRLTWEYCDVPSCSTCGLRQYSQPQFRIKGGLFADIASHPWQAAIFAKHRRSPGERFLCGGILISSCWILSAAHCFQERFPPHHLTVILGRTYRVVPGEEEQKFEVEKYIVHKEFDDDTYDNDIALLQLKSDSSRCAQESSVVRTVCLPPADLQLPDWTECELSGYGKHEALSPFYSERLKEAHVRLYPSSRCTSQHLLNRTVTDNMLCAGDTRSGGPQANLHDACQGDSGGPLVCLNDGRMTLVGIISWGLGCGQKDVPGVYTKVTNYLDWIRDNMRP

SMILES	Mode of inhibition (Cornish-Bowden S/Vo vs I plot) [2]	Mode of inhibition (Cornish-Bowden S/Vo vs I plot) [4]	Ki ([4]; Thrombin Ki)	Mode of inhibition (Cornish-Bowden S/Vo vs I plot) [5]	Ki [5]	Ki ([2]; read-out: tPA Ki)	Ki ([4]; read-out: Thrombin Ki)	rpAMB (KiAMB/Kihetero) [5]	rpTXA (KiTXA/Kihetero) [5]	other results
N=C(N)c1ccc(N)cc1 [4-amino benzamidine, reference compound]	competitive inhibitor	competitive inhibitor								IC50 [1]: 451 ± 70 µM; Ki ([2]; tPA Ki): 148 µM; Ki [3]: 51 ± 2.4 µM
N=C(N)c1ccc(CN)cc1 [4-aminomethyl benzamidine, reference compound]	competitive inhibitor	competitive inhibitor	344 µM							IC50 [1]: 32700 µM; IC50/Ki [1]: 29.0; Ki ([2]; tPA Ki): 5210 µM; Ki [3]: 1070 µM
N=C(N)c1ccc(C(=O)O)cc1 [4-carboxy benzamidine, reference compound]		competitive inhibitor	151 µM							Ki [3]: 292 ± 6.5 µM
N=C(N)c1ccccc1 [Benzamidine, reference compound]	competitive inhibitor	competitive inhibitor								
NCCCCCC(=O)O [EACA, ɛ-aminocaproic acid, reference compound]	weak competitive inhibitor	competitive inhibitor	65200 µM	weak competitive inhibitor						
N=C(N)c1ccc(CNC(=O)CCOCCOCCOCCOCCNC(=O)CCCCCN)cc1 [EACA-dPEG4-AMB]	competitive inhibitor	competitive inhibitor		competitive inhibitor	233 ± 5 µM	501 µM	4.05 µM and 4 µM			fold stronger inhibitor of thrombin than the TXA counterpart ([4]; EACA-dPEG4-AMB vs TXA-dPEG4-AMB, monovalent EACA vs monovalent TXA): 3 fold
N=C(N)c1ccc(OCCCCCOc2ccc(C(=N)N)cc2)cc1 [Pentamidine, reference compound]	competitive inhibitor	competitive inhibitor	4.48 µM and 4.5 µM							IC50 [1]: 3.2 ± 1 µM; IC50/Ki [1]: 1.5; Ki ([2]; tPA Ki): 42.7 µM and 43 µM
NC[C@H]1CC[C@H](C(=O)O)CC1 [TXA, Tranexamic acid]				weak competitive inhibitor						Ki [6]: ~40000 µM; Ki ([7]; read-out: Ki for LBS on the K1 domain of plasmin, K1 domain): 1.1 µM; Ki ([7]; read-out: Ki for the other plasmin kringle domain LBS, other kringle domains): ~750 µM
N=C(N)c1ccc(CNC(=O)CCOCCOCCOCCOCCNC(=O)[C@H]2CC[C@H](CN)CC2)cc1 [TXA-dPEG4-AMB]	competitive inhibitor	competitive inhibitor		competitive inhibitor	42 ± 12 µM	230 µM and 231 µM	14.5 µM and 14 µM	26	509	
N=C(N)c1ccc(CNC(=O)CCOCCOCCOCCOCCOCCOCCOCCOCCNC(=O)[C@H]2CC[C@H](CN)CC2)cc1 [TXA-dPEG8-AMB]	not to be a solely competitive inhibitor	competitive inhibitor		competitive inhibitor	99.4 µM and 99 µM	292 ± 0.4 µM	32.4 µM and 32 µM	11	216	
N=C(N)c1ccc(CNC(=O)CCOCCOCCOCCOCCOCCOCCOCCOCCOCCOCCOCCOCCNC(=O)[C@H]2CC[C@H](CN)CC2)cc1 [TXA-dPEG12-AMB]	competitive inhibitor	competitive inhibitor		competitive inhibitor	207 ± 4.1 µM	641 µM	45.7 µM and 46 µM	5	103	
N=C(N)c1ccc(CNC(=O)CCOCCOCCOCCOCCOCCOCCOCCOCCOCCOCCOCCOCCOCCOCCOCCOCCOCCOCCOCCOCCOCCOCCOCCOCCOCCOCCOCCOCCOCCOCCOCCOCCOCCOCCOCCOCCNC(=O)[C@H]2CC[C@H](CN)CC2)cc1 [TXA-dPEG36-AMB]	not to be a solely competitive inhibitor	competitive inhibitor		competitive inhibitor	75.4 µM and 75 µM	136 ± 0.7 µM	77.5 µM and 78 µM	14	285	
N=C(N)c1ccc(CNC(=O)CN(CC(=O)NCc2ccc(C(=N)N)cc2)CC(=O)NCc2ccc(C(=N)N)cc2)cc1 [Tri-AMB]	competitive inhibitor	competitive inhibitor				164 ± 17 µM	10.7 µM and 11 µM			IC50 ([1]; read-out: Annular IC50, 850 nM plasmin, annular fibrin clot, from Vmax): 7.7 ± 3 µM

Reference: paper PMC12186753 (ACS pharmacology & translational science, 2025)
